Experiment [1] has as its system ECE-transfected CHO cells. Kind of experiment: Aβ concentration in conditioned medium of ECE-1a- or ECE-1b-transfected CHO cells. Type of experiment: cell-based, hamster. The method, then: (§1) Human and guinea pig Aβ40 or Aβ42 was measured in plasma by sandwich ELISA as previously described (Suzuki et al., 1994, Science, 264:1336-1340) using the BAN-50/BA-27 or BAN-50/BC-05 antibody systems, respectively (Takeda; Japan). Hamster Aβ40- or Aβ42-derived from CHO cells was measured using the BNT-77/BA-27 or BNT-77/BC-05 antibody systems, respectively. Aβ concentration in samples was determined by comparison to synthetic Aβ40 or Aβ42 standards (Bachem, Switzerland). Data was obtained from triplicate wells.
In particular, the sandwich ELISA used herein was performed as follows: 96-well microtiter plates were coated overnight at 4° C. with 100 μl of a 5 μg/ml dilution of primary antibody in sodium carbonate coating buffer (SCCB; 0.1 M Na2CO3, pH 9.6). Plates were blocked overnight at 4° C. with 300 μl of BLOCKAGE Solution (PBS+1.0% BLOCKAGE (Snow Brand Milk Products, Japan), 0.05% NaN3, pH 7.4). Samples for analysis and synthetic Aβ standards (Bachem, Switzerland) were diluted in buffer EC (0.02 M NaH2PO4, 0.002 M EDTA, 0.4 M NaCl, 0.2% BSA, 0.05% CHAPS, 0.04% BLOCKAGE, 0.05% NaN3, pH 7.0) and allowed to incubate on the plates overnight at 4° C. Plates were washed twice with PBS (8 mM Na2HPO4, 1.5 mM KH2PO4, 139 mM NaCl, 2.7 mM KCl, pH 7.4) and 100 μl of secondary antibody directly coupled to HRP (EZ-LINK™ Plus Activated Peroxidase kit (contents of kit: peroxidase, 5 M sodium cyanoborohydride solution (NaBH3CN), quenching buffer (3 M ethanolamine, pH 9.0), BupH™ phosphate buffered saline, Buph™ carbonate-bicarbonate buffer), according to manufacturers directions; Pierce Chemical Co., Rockford, Ill.) was allowed to bind either 4 hrs at room temperature or overnight at 4° C. Plates were then washed twice with PBS containing 0.05% Tween 20 followed by two additional washes in PBS. […] Plates were read at 450 nm in a SpectraMax Plus spectrophotometer (Molecular Devices; Sunnyvale, Calif.) and analyzed by SOFTmax® PRO software. Aβ40 or Aβ42 were quantitated by comparison with the values obtained for each synthetic Aβ standard from the same plate. […]

Experiment [2] relates to ECE-transfected CHO cells. Kind of experiment: Removal of synthetic Aβ40 spiked into culture medium of ECE-transfected CHO cells. Type of experiment: cell-based, hamster. As to the method:
as §1
In particular, the sandwich ELISA used herein was performed as follows: 96-well microtiter plates were coated overnight at 4° C. with 100 μl of a 5 μg/ml dilution of primary antibody in sodium carbonate coating buffer (SCCB; 0.1 M Na2CO3, pH 9.6). […] Plates were read at 450 nm in a SpectraMax Plus spectrophotometer (Molecular Devices; Sunnyvale, Calif.) and analyzed by SOFTmax® PRO software. Aβ40 or Aβ42 were quantitated by comparison with the values obtained for each synthetic Aβ standard from the same plate.
To determine whether extracellular removal of Aβ accounted, at least in part, for the dramatic decrease in extracellular Aβ concentration in ECE-transfected cell lines, synthetic Aβ40 was spiked into the culture medium in the presence or absence of phosphoramidon and the amount of unhydrolyzed Aβ was determined at 6 or 24 hrs by sandwich ELISA. […]

As to `CC(C)C[C@H](NP(=O)(O)O[C@@H]1O[C@@H](C)[C@H](O)[C@@H](O)[C@H]1O)C(=O)N[C@@H](Cc1c[nH]c2ccccc12)C(=O)O` [phosphoramidon], the “reversal of the reduction in Aβ concentration in ECE-transfected cells” value in experiment [1] (ECE-transfected CHO cells treated with phosphoramidon) is given as “completely reversed”. Besides, in experiment [1] (parallel cultures of ECE-1a-transfected cells without synthetic Aβ, 24 hr), the “phosphoramidon-induced accumulation of endogenous Aβ” value is on record as “greater than 600%”. In addition, the “increase in secretion of endogenous Aβ” value in experiment [1] (phosphoramidon-treated ECE-transfected CHO cells, 6 hr) is given as 1.5- to 2 fold. In addition, in experiment [2] (6 hr incubation, ECE-transfected and untransfected CHO cells, spiked synthetic Aβ40), the “extracellular concentration of synthetic Aβ” value is listed as “not affected”. Besides, the “ECE-1a-induced increase in Aβ removal” value in experiment [2] (24 hr, ECE-1a-transfected CHO cells treated with phosphoramidon) is given as “completely attenuated”.

For the origin of these results see patent US6699681B2, “Endothelin converting enzymes and the amyloid β peptide” (Mayo Foundation for Medical Education and Research, priority 2000, dated 2004).
